In ChEMBL document CHEMBL3763014, “Alkaloids from Oxytropis ochrocephala and antiproliferative activity of sophoridine derivatives against cancer cell lines” (Bioorg Med Chem Lett, 2016):

Columns and labels:
Format in all cases: functional, cell-based
[1] = tested on: A549; assay: Antiproliferative activity against human A549 cells after 3 days by SRB assay; conditions: A549, 72 h
[2] = tested on: KB; assay: Antiproliferative activity against human KB cells after 3 days by SRB assay; conditions: 72 h
[3] = Antiproliferative activity against human KBVIN cells after 3 days by SRB assay; conditions: 72 h
[4] = tested on: MDA-MB-231; assay: Antiproliferative activity against human MDA-MB-231 cells after 3 days by SRB assay; conditions: MDA-MB-231, 72 h
[5] = tested on: MCF7; assay: Antiproliferative activity against human MCF7 cells after 3 days by SRB assay; conditions: MCF7, 72 h

Row | SMILES | IC50 [1] [µM] | IC50 [2] [µM] | IC50 [4] [µM] | IC50 [5] [µM] | IC50 [3] [µM]
1 | O=c1cccc2n1C[C@@H]1CCCN3CCC[C@H]2[C@H]13 | > 40 | > 40 | > 40 |  | > 40
2 | O=C1CCC[C@@H]2[C@@H]3C[C@@H](CN12)[C@@H]1CCCCN1C3 | > 40 | > 40 | > 40 |  | > 40
3 | O[C@@H]1[C@H]2[C@H](O)CCCN2C[C@@H]1O | > 40 | > 40 | > 40 |  | > 40
4 | O=C1CCC[C@@H]2[C@H]3CCCN4CCC[C@H](CN12)[C@H]34 | > 40 | > 40 | > 40 |  | > 40
5 | O=C1/C(=C/c2ccc3c(c2)OCO3)CC[C@@H]2[C@H]3CCCN4CCC[C@H](CN12)[C@@H]34 | > 40 | > 40 | > 40 |  | > 40
6 | CCOc1cc(/C=C2\CC[C@@H]3[C@H]4CCCN5CCC[C@H](CN3C2=O)[C@@H]45)ccc1OCc1ccccc1 | 17.6 | 20.7 | 21.9 | 20.5 | 21.6
7 | CN(C)c1ccc(/C=C2\CC[C@@H]3[C@H]4CCCN5CCC[C@H](CN3C2=O)[C@@H]45)cc1 | > 40 | > 40 | > 40 |  | > 40
8 | O=C1CCCC2=C3CCCN4CCC[C@@H](CN12)[C@@H]34 | > 40 | > 40 | > 40 |  | > 40
9 | O=C1CCC[C@@H]2[C@H]3CCCN4CCC[C@@H](CN12)[C@@H]34 [MATRINE] | > 40 | > 40 | > 40 |  | > 40
10 | CC(=O)O[C@H]1C(=O)[C@@]2(C)[C@H]([C@H](OC(=O)c3ccccc3)[C@]3(O)C[C@H](OC(=O)[C@H](O)[C@@H](NC(=O)c4ccccc4)c4ccccc4)C(C)=C1C3(C)C)[C@]1(OC(C)=O)CO[C@@H]1C[C@@H]2O [PACLITAXEL] | 3e-05 | 4e-05 | 0.018 |  | 2.6
11 | O=C1C=CC[C@@H]2[C@H]3CCCN4CCC[C@@H](CN12)[C@@H]34 [SOPHOCARPINE] | > 40 | > 40 | > 40 |  | > 40
12 | O=C1CCC[C@@H]2[C@H]3CCCN4CCC[C@H](CN12)[C@@H]34 [SOPHORIDINE] | > 80 | > 80 | > 80 | > 80 | > 80

Further lines, with some results ahead:

Row | IC50 [1] [µM] | IC50 [2] [µM] | IC50 [4] [µM] | IC50 [5] [µM] | SMILES | IC50 [3] [µM]
13 | 74 | 74 | 67 | > 80 | COc1ccc(/C=C2\CC[C@@H]3[C@H]4CCCN5CCC[C@H](CN3C2=O)[C@@H]45)c(C)c1 | > 80
14 | > 40 | > 40 | > 40 |  | COc1cccc(OC)c1/C=C1\CC[C@@H]2[C@H]3CCCN4CCC[C@H](CN2C1=O)[C@@H]34 | > 40
15 | > 80 | 71 | 68 | > 80 | COc1cccc(/C=C2\CC[C@@H]3[C@H]4CCCN5CCC[C@H](CN3C2=O)[C@@H]45)c1OC | > 80
16 | > 40 | > 40 | > 40 |  | CCOc1cc(/C=C2\CC[C@@H]3[C@H]4CCCN5CCC[C@H](CN3C2=O)[C@@H]45)ccc1OCOC | > 40
17 | 42 | 58 | 45 | 54 | COc1cc(/C=C2\CC[C@@H]3[C@H]4CCCN5CCC[C@H](CN3C2=O)[C@@H]45)ccc1C | 72
